Patent US4443448A, “Indane derivatives, pharmaceutical compositions thereof and method of preparation” (priority 1980, dated 1984)

Columns and labels:
[1] = test system: 3H-DA uptake in striatal synaptosomes; assay: 3H-DA uptake in striatal synaptosomes in vitro; assay type: biochemical, rats; settings: rat striatal synaptosomes, 12.5 nM 3H-DA, 37° C., pH 7.4
Method: ^3 H-DA uptake in striatal synaptosomes in vitro
0.32 M sucrose containing 1 mM Nialamide
Millipore filters (HAWPO 2500, 0.45μ)
3,4-dihydroxyphenylethylamine[ethyl-1-^3 H(N)]=^3 H-DA spc. act. app. 15 Ci/mmol, New England Nuclear Thomas Tissue Grinder, clearance 0.004-0.006 inch.
Rats are killed by a blow to their head, exsanguinated and their brains removed. The brain is placed on a precooled glassplate, and the two corpura striata are dissected out and gently homogenized in 40 volumes of ice cold 0.32 M sucrose containing 1 mM of nialamide using a hand homogenizer with teflon pestle. The P2 -fraction (synaptosomal fraction) is obtained by centrifugation (600 g, 10 min., 25000 g, 55 min. 4° C.) and suspended in 40 volumes of a modified Krebs-Ringer-phosphate buffer, pH 7.4. To 200 μl of the synaptosomal fraction on ice are added 3700 μl modified Krebs-Ringer-phosphate buffer--containing test compounds. After a preincubation at 37° C. for 5 min. […] The incubation is terminated by filtering the samples under vacuum through Millipore filters with a wash of 5 ml buffer containing 10 μM of unlabelled DA. After solubilizing the filters in 1 ml of cellosolve the radioactivity is determined by liquid scintillation counting after the addition of 10 ml of Insta-Gel. The unspecific binding of ^3 H-DA is determined by incubating control samples on ice instead of at 37° C.
All experiments are performed in triplicate.
The mean of all control samples and ice samples are calculated. […] The IC50-values are determined as the concentrations, at which the uptake are 50 percent of the uptake in control samples-uptake in ice samples.

methylphenidate = assay: Methylphenidate antagonism in mice; assay type: in vivo; settings: for ED50: Mus musculus, ip, 2 h, read-out: MePh antag. ED50 2 hr i.p., mice, test substance i.p., 2 hr before methylphenidate 60 mg/kg s.c.
Method: Methylphenidate antagonism (ED50 mg/kg i.p.)
(§1) Perspex observation cages without bottom and lid, consisting of 5 sections each measuring 12×25×30 cm.
3×2 mice are used for each dose level. Two or 24 hours after injection of test substance, methylphenidate, 60 mg/kg, is injected s.c. After administration of methylphenidate the mice are placed in the observation cages, 2 in each cage, where they remain for exactly 1 hour. The cages were placed on corrugated paper, the corrugations facing upwards. It is examined whether the mice have been biting the corrugated paper or not. […] If one or more of the control pairs have not been biting, the test has to be repeated on a new set of mice.
The result is stated in fractions: 0/3, 1/3, 2/3 and 3/3 where 0, 1, 2 and 3 are the number of pairs which have not been biting on receipt of the dose in question.

[2] = Mouse grid shock (analgesia); assay type: in vivo; settings: mice, minimal effective dose, in mg/kg
Method: The mouse grid consists of a perspex cage with wire grid bottom and a perspex lid, on which is placed a microphone sensitive to the frequency of a mouse squeak. A stimulator with motordriven potentiometer applies a sequence of square wave impulses of continuously increasing milliamperage to the grid. Frequency of impulses 20 cycles/sec., duration 5 msec. Milliamperage is recorded on a digital amperemeter connected to the stimulator. Activation of the microphone by a mouse-squeak cuts off the current and the final milliamperage appears on the meter.
Five mice are used for each dose level. Each mouse serves as its own control.
Prior to the administration of test substance the animals are placed on the grid one at a time, and the pain threshold is determined by increasing the current intensity until the mouse squeaks. The pain threshold may be read on the milliamperemeter. Fifteen minutes and 30 minutes after administration of test substance the mice are tested again and the pain thresholds recorded.
Analgesic effect is present, when the pain threshold is increased over the pre-dosing value (control value). The results are stated as % increase in pain threshold calculated on the basis of the control value.
The registration can also be done as an on-line procedure. In this case the punching instruction and punching cards will be provided automatically and the results will be registered as a minimal effective dose (MED) determined after van der Waerdens X-test.

amphetamine = assay: Amphetamine antagonism in rats; assay type: in vivo; settings: rats, p.o., amphetamine 10 mg/kg base i.v.; for ED50: Rattus norvegicus, po, read-out: Amphetamine antag. ED50 p.o.
Method: Amphetamine antagonism (ED50 mg/kg i.p.)
as §1
The test substance is given p.o. in a reasonable dose based on the determined LD50. Two or 24 hours later an intravaneous injection of amphetamine sulphate 13.6 mg/kg (10 mg/kg amphetamine base) is given, after which the rats are placed individually in the cages. The cages are placed on white corrugated paper. Five rats are used for each dose level. Observations are made after 55 minutes and 65 minutes-observation time: 1 minute. The animals are observed for stereotypy (movements of the head, compulsive gnawing). […] If the compound has full antagonistic effect another group of rats is used at a lower dose. […] The result is stated as fractions: 0/5, 1/5, 2/5, 3/5, 4/5 and 5/5, where 0, 1, 2, 3, 4 and 5 indicate the number of rats which have not shown stereotypy at the dose in question. The results are calculated as ED50 in mg/kg.

in vivo [3] = assay: in vivo; parameters: species or system rats; settings: for Ratio catalep./Amphet.: catalepsy ED50 / amphetamine antagonism ED50; for ED50: rat, in vivo, po, read-out: Catalep. (catalepsy wire mesh, rat, max, ED50)
Method: A vertical wire netting (50 cm×49 cm). The meshes (openings) of the netting are square (1 cm×1 cm). The wire diameter is 2 mm.
The animals are labeled and used in groups of five. The test substance is administered orally (p.o) at 4 dose levels selected from the fixed dose scale.
The animals are placed in the middle of the vertical wire netting 60, 120, 180, 240, 300 and 360 minutes after administration of the test compound. The animals are considered cataleptic when they remain immobile during a period of 15 seconds.
This cataleptic reaction is designated +. If the rats are "atonic" and passively slide down the wire mesh they are considered not cataleptic. If the animals climb up and down the wire mesh they are nor cataleptic.
In both situations the designation--is used.

in vivo [4] = settings: iv
[5] = rats, p.o., strongest effect within first 6 hours

Compound: CN1CCN([C@@H]2C[C@@H](c3ccc(Cl)c(Cl)c3)c3ccccc32)CC1 (relative stereo) [Lu 17-110]
- IC50 [1]: 0.011 µM

Compound: OCCN1CCN([C@@H]2C[C@H](c3ccc(Cl)c(Cl)c3)c3ccccc32)CC1 (relative stereo) [Lu 17-132]
- IC50 [1]: 0.012 µM

Compound: CN1CCN([C@@H]2C[C@@H](c3ccccc3)c3ccc(F)cc32)CC1 (relative stereo) [Lu 14-067]
- ED50 (methylphenidate): > 40 mg/kg
- MED Grid Shock [2]: 5
- IC50 [1]: 0.068 µM

Compound: CN1CCN(C2CC(c3ccc(F)cc3)c3ccc(F)cc32)CC1 (single isomer, unassigned; (-)) [Lu 17-152, (-) 1-Methyl-4-(3-(4'-fluorophenyl)-6-fluoro-1-indanyl)piperazine]
- MePh antag. ED50 2 hr i.p. (methylphenidate; mice, test substance i.p., 2 hr before methylphenidate 60 mg/kg s.c., 120 min): 17 mg/kg
- Amphetamine antag. ED50 p.o. (amphetamine): > 80 mg/kg
- Catalep. (catalepsy wire mesh, rat, max, ED50) (in vivo [3]; [5]): > 320 mg/kg
- MED Grid Shock [2]: 5
- IC50 [1]: 0.088 µM

Compound: OCCCCN1CCN([C@@H]2C[C@@H](c3ccc(Cl)c(Cl)c3)c3ccccc32)CC1 (relative stereo) [Lu 18-121]
- IC50 [1]: 0.011 µM

Compound: OCCCN1CCN([C@@H]2C[C@H](c3ccc(Cl)c(Cl)c3)c3ccccc32)CC1 (relative stereo) [Lu 18-082]
- IC50 [1]: 0.006 µM

Compound: OCCN1CCN([C@@H]2C[C@@H](c3ccc(F)cc3)c3ccc(Cl)cc32)CC1 (relative stereo) [Lu 14-068]
- ED50 (methylphenidate): 1.3 mg/kg
- ED50 (amphetamine): 1.6 mg/kg
- Ratio catalep./Amphet. (in vivo [3]): 0.9
- ED50 (in vivo [3]; [5]): 1.5 mg/kg
- MED Grid Shock [2]: 0.31
- IC50 [1]: 0.084 µM
- LD50 (in vivo [4]): 94 mg/kg

Compound: CC(O)CN1CCN(C2CC(c3ccc(F)cc3)c3ccc(F)cc32)CC1 (centres unmarked) [Lu 17-144, 1-(2-hydroxy-1-propyl)-4-(3-(4'-fluorophenyl)-6-fluoro-1-indanyl)piperazine]
- IC50 [1]: 0.018 µM

Compound: OCC(O)CN1CCN(C2CC(c3ccc(Cl)c(Cl)c3)c3ccccc32)CC1 (single isomer, unassigned) [Lu 18-129]
- IC50 [1]: 0.014 µM

Compound: OCCN1CCN([C@@H]2C[C@@H](c3ccc(Cl)c(Cl)c3)c3ccccc32)CC1 (relative stereo) [Lu 17-133]
- IC50 [1]: 0.003 µM

Compound: CN1CCN([C@@H]2C[C@H](c3ccc(Cl)c(Cl)c3)c3ccccc32)CC1 (relative stereo) [Lu 17-109]
- IC50 [1]: 0.004 µM

Compound: OCCCCN1CCN([C@@H]2C[C@@H](c3ccc(F)cc3)c3ccc(F)cc32)CC1 (relative stereo) [Lu 18-080]
- ED50 (methylphenidate): 2.9 mg/kg
- ED50 (amphetamine): 3.5 mg/kg
- Ratio catalep./Amphet. (in vivo [3]): 6.2
- ED50 (in vivo [3]; [5]): 21.8 mg/kg
- MED Grid Shock [2]: < 1.3
- IC50 [1]: 0.025 µM
- LD50 (in vivo [4]): 80 mg/kg

Compound: OCCCN1CCN([C@@H]2C[C@@H](c3ccc(F)cc3)c3ccc(F)cc32)CC1 (relative stereo) [Lu 14-036]
- ED50 (methylphenidate): 1.6 mg/kg
- ED50 (amphetamine): 2.3 mg/kg
- Ratio catalep./Amphet. (in vivo [3]): 1.6
- ED50 (in vivo [3]; [5]): 3.7 mg/kg
- MED Grid Shock [2]: 5
- IC50 [1]: 0.073 µM
- LD50 (in vivo [4]): 129 mg/kg

Compound: OCC(O)CN1CCN(C2CC(c3ccc(F)cc3)c3ccc(F)cc32)CC1 (single isomer, unassigned) [Lu 17-066]
- ED50 (methylphenidate): 1.6 mg/kg
- ED50 (amphetamine): 18 mg/kg
- Ratio catalep./Amphet. (in vivo [3]): 8.9
- ED50 (in vivo [3]; [5]): > 160 mg/kg
- MED Grid Shock [2]: 2.5
- IC50 [1]: 0.027 µM
- LD50 (in vivo [4]): > 160 mg/kg

Compound: OCCCN1CCN([C@@H]2C[C@@H](c3ccc(Cl)c(Cl)c3)c3ccccc32)CC1 (relative stereo) [Lu 18-081]
- IC50 [1]: 0.015 µM

Compound: OCC(O)CN1CCN(C2CC(c3ccc(F)cc3)c3ccc(F)cc32)CC1 (single isomer, unassigned) [Lu 17-079]
- IC50 [1]: 0.012 µM

Compound: OCC(O)CN1CCN(C2CC(c3ccc(Cl)c(Cl)c3)c3ccccc32)CC1 (single isomer, unassigned) [Lu 18-128]
- IC50 [1]: 0.012 µM
